Assay results from PubChem BioAssay AID328 (DTP/NCI, 2004).
Values joined by “and” are separate entries in the source; they are usually repeats but may differ in a detail not shown here. Equal values may be shown once. Inconclusive results and toxic doses are left out. Rule for the calls: active = survival T/C of 150% or more; inactive = T/C below 125% in these data.

Test system: BDF1 mice, P388 leukemia ip, median survival T/C
Test: NCI In Vivo Anticancer Drug Screen. Data for tumor model P388 Leukemia (intraperitoneal) in B6D2F1 (BDF1) mice
Settings: endpoint: median survival time, higher = longer survival
How it was run: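 Vehicle-dosed animals serve as the reference; survival of compound-dosed, tumour-implanted mice is divided by it.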

[1] = dose: 50.0 mg/kg/injection, schedule: Q01DX009 (ip), vehicle: saline with Tween-80
[2] = dose: 100.0 mg/kg/injection, schedule: Q01DX009 (ip), vehicle: saline with Tween-80
[3] = dose: 200.0 mg/kg/injection, schedule: Q01DX009 (ip), vehicle: saline with Tween-80
[4] = dose: 50.0 mg/kg/injection, schedule: Q01DX009 (ip), vehicle: saline

Measured: T/C

Cc1cc2c(c(O)c1CN1CCOCC1)C1=C(CCCC1)C(C)(C)O2
inactive: dose: 1.0 mg/kg/injection, schedule: Q01DX001 (ip), vehicle: Klucel (hydroxypropylcellulose) (HPC) 99 % of control | dose: 2.0 mg/kg/injection, schedule: Q01DX001 (ip), vehicle: Klucel (hydroxypropylcellulose) (HPC) 112 % of control | dose: 4.0 mg/kg/injection, schedule: Q01DX001 (ip), vehicle: Klucel (hydroxypropylcellulose) (HPC) 104 % of control | dose: 8.0 mg/kg/injection, schedule: Q01DX001 (ip), vehicle: Klucel (hydroxypropylcellulose) (HPC) 104 % of control | dose: 16.0 mg/kg/injection, schedule: Q01DX001 (ip), vehicle: Klucel (hydroxypropylcellulose) (HPC) 109 % of control | dose: 32.0 mg/kg/injection, schedule: Q01DX001 (ip), vehicle: Klucel (hydroxypropylcellulose) (HPC) 98 % of control | dose: 64.0 mg/kg/injection, schedule: Q01DX001 (ip), vehicle: Klucel (hydroxypropylcellulose) (HPC) 96 % of control | dose: 128.0 mg/kg/injection, schedule: Q01DX001 (ip), vehicle: Klucel (hydroxypropylcellulose) (HPC) 106 % of control | dose: 256.0 mg/kg/injection, schedule: Q01DX001 (ip), vehicle: Klucel (hydroxypropylcellulose) (HPC) 98 % of control

O=C1C(=O)c2ccccc2C(O)=C1CC=C(Cl)Cl
inactive: dose: 6.2 mg/kg/injection, schedule: Q01DX005 (ip), vehicle: water 100 % of control | dose: 12.5 mg/kg/injection, schedule: Q01DX001 (ip), vehicle: water 100 % of control | dose: 12.5 mg/kg/injection, schedule: Q01DX005 (ip), vehicle: water 100 % of control | dose: 12.5 mg/kg/injection, schedule: Q01DX010 (ip), vehicle: saline 100 % of control | dose: 12.5 mg/kg/injection, schedule: Q03HX024 (ip), vehicle: water 100 % of control | dose: 12.5 mg/kg/injection, schedule: Q04DX003 (ip), vehicle: water 100 % of control | dose: 12.5 mg/kg/injection, schedule: Q08DX002 (ip), vehicle: water 100 % of control | dose: 25.0 mg/kg/injection, schedule: Q01DX001 (ip), vehicle: water 108 % of control | dose: 25.0 mg/kg/injection, schedule: Q01DX005 (ip), vehicle: water 100 % of control | dose: 25.0 mg/kg/injection, schedule: Q01DX009 (ip), vehicle: water 100 % of control | dose: 25.0 mg/kg/injection, schedule: Q01DX009 (oral), vehicle: water 100 % of control | dose: 25.0 mg/kg/injection, schedule: Q01DX010 (ip), vehicle: saline 87 % of control | dose: 25.0 mg/kg/injection, schedule: Q03HX008 (ip), vehicle: water 100 % of control | dose: 25.0 mg/kg/injection, schedule: Q03HX016 (ip), vehicle: water 109 % of control | dose: 25.0 mg/kg/injection, schedule: Q03HX024 (ip), vehicle: water 100 % of control | dose: 25.0 mg/kg/injection, schedule: Q04DX003 (ip), vehicle: water 100 % of control | dose: 25.0 mg/kg/injection, schedule: Q08DX002 (ip), vehicle: water 109 % of control | dose: 50.0 mg/kg/injection, schedule: Q01DX001 (ip), vehicle: water 108 % of control | dose: 50.0 mg/kg/injection, schedule: Q01DX001 (oral), vehicle: water 108 % of control | dose: 50.0 mg/kg/injection, schedule: Q01DX005 (ip), vehicle: water 100 % of control | dose: 50.0 mg/kg/injection, schedule: Q01DX009 (oral), vehicle: water 100 % of control | dose: 50.0 mg/kg/injection, schedule: Q01DX010 (ip), vehicle: saline 91 % of control | dose: 50.0 mg/kg/injection, schedule: Q01DX010 (oral), vehicle: saline with Tween-80 104 % of control | dose: 50.0 mg/kg/injection, schedule: Q03HX008 (ip), vehicle: water 100 % of control | dose: 50.0 mg/kg/injection, schedule: Q03HX016 (ip), vehicle: water 100 % of control | dose: 50.0 mg/kg/injection, schedule: Q03HX024 (ip), vehicle: water 86 % of control | dose: 50.0 mg/kg/injection, schedule: Q04DX003 (ip), vehicle: water 100 % of control | dose: 50.0 mg/kg/injection, schedule: Q08DX002 (ip), vehicle: water 109 % of control | dose: 75.0 mg/kg/injection, schedule: Q01DX005 (ip), vehicle: water 108 % of control | dose: 75.0 mg/kg/injection, schedule: Q03HX024 (ip), vehicle: water 86 % of control | dose: 75.0 mg/kg/injection, schedule: Q04DX003 (ip), vehicle: water 100 % of control | dose: 100.0 mg/kg/injection, schedule: Q01DX001 (oral), vehicle: water 108 % of control | dose: 100.0 mg/kg/injection, schedule: Q01DX009 (oral), vehicle: water 86 % of control | dose: 100.0 mg/kg/injection, schedule: Q01DX010 (oral), vehicle: saline with Tween-80 108 % of control | dose: 100.0 mg/kg/injection, schedule: Q03HX008 (ip), vehicle: water 100 % of control | dose: 100.0 mg/kg/injection, schedule: Q03HX016 (ip), vehicle: water 100 % of control | dose: 100.0 mg/kg/injection, schedule: Q03HX024 (ip), vehicle: water 100 % of control | dose: 100.0 mg/kg/injection, schedule: Q08DX002 (ip), vehicle: water 109 % of control | dose: 200.0 mg/kg/injection, schedule: Q01DX001 (oral), vehicle: water 100 % of control | dose: 200.0 mg/kg/injection, schedule: Q03HX008 (ip), vehicle: water 109 % of control | dose: 200.0 mg/kg/injection, schedule: Q03HX016 (ip), vehicle: water 100 % of control | dose: 300.0 mg/kg/injection, schedule: Q01DX009 (oral), vehicle: water 91 % of control

N#CN=CN1CCC(O)(c2ccccc2)CC1
inactive: [1] 88 % of control | [2] 88 % of control | [3] 94 % of control

COC(=O)c1ccc(CSc2ccccc2NC(=S)Nc2cccc(C(F)(F)F)c2)o1
inactive: [3] 90 % of control

C#CCSC(=N)N
inactive: dose: 12.5 mg/kg/injection, schedule: Q01DX009 (ip), vehicle: saline 100 % of control | dose: 33.0 mg/kg/injection, schedule: Q01DX009 (ip), vehicle: saline 109 % of control and 118 % of control | dose: 37.5 mg/kg/injection, schedule: Q04DX003 (ip), vehicle: saline 109 % of control | [4] 100 % of control and 115 % of control | dose: 75.0 mg/kg/injection, schedule: Q04DX003 (ip), vehicle: saline 109 % of control

CCCCCCCCCC(=O)NN1CCOCC1
inactive: dose: 100.0 mg/kg/injection, schedule: Q01DX001 (ip), vehicle: saline with Tween-80 104 % of control | dose: 200.0 mg/kg/injection, schedule: Q01DX001 (ip), vehicle: saline with Tween-80 120 % of control | dose: 400.0 mg/kg/injection, schedule: Q01DX001 (ip), vehicle: saline with Tween-80 104 % of control

O/N=C(\C[n+]1ccccc1)c1ccc2ccccc2c1
inactive: dose: 1.56 mg/kg/injection, schedule: Q01DX009 (ip), vehicle: Klucel (hydroxypropylcellulose) (HPC) 113 % of control | dose: 3.12 mg/kg/injection, schedule: Q01DX009 (ip), vehicle: Klucel (hydroxypropylcellulose) (HPC) 120 % of control | dose: 3.12 mg/kg/injection, schedule: Q01DX009 (ip), vehicle: saline 107 % of control | dose: 6.25 mg/kg/injection, schedule: Q01DX009 (ip), vehicle: Klucel (hydroxypropylcellulose) (HPC) 122 % of control | dose: 6.25 mg/kg/injection, schedule: Q01DX009 (ip), vehicle: saline 120 % of control | [4] 106 % of control

CC(CC(O)C(C)(C)C)C(C)(C)C (configuration not stated)
inactive: dose: 12.5 mg/kg/injection, schedule: Q01DX009 (ip), vehicle: saline with Tween-80 117 % of control | dose: 25.0 mg/kg/injection, schedule: Q01DX009 (ip), vehicle: saline with Tween-80 110 % of control | [1] 117 % of control

CS(=O)c1ccccc1C(=O)O (configuration not stated)
inactive: dose: 100.0 mg/kg/injection, schedule: Q04DX003 (ip), vehicle: saline with Tween-80 106 % of control | dose: 200.0 mg/kg/injection, schedule: Q04DX003 (ip), vehicle: saline with Tween-80 110 % of control | dose: 400.0 mg/kg/injection, schedule: Q04DX003 (ip), vehicle: saline with Tween-80 109 % of control

CC1CCC2(C(=O)O)CCC3(C)C(=CCC4C5(C)CCC(O)C(C)(C)C5CCC43C)C2C1C (configuration not stated)
inactive: dose: 100.0 mg/kg/injection, schedule: Q01DX010 (ip), vehicle: acetone 120 % of control | dose: 200.0 mg/kg/injection, schedule: Q01DX010 (ip), vehicle: acetone 115 % of control | dose: 400.0 mg/kg/injection, schedule: Q01DX010 (ip), vehicle: acetone 120 % of control

O=C1c2ccccc2C(=O)c2c(O)ccc(O)c21
inactive: [2] 104 % of control | [3] 109 % of control | dose: 400.0 mg/kg/injection, schedule: Q01DX009 (ip), vehicle: saline with Tween-80 109 % of control

O=[N+]([O-])/C=C/c1c(Cl)cccc1Cl
inactive: dose: 50.0 mg/kg/injection, schedule: Q04DX003 (ip), vehicle: other 122 % of control
